Drawing on ChEMBL document CHEMBL1649369, “Novel 4-aryl-pyrido[1,2-c]pyrimidines with dual SSRI and 5-HT(1A) activity. part 3” (Eur J Med Chem, 2011), this text covers deltaT and Ki for two compounds.

One may read the Ki as the equilibrium dissociation constant of an inhibitor or competing ligand from its target. Read a low Ki as a stronger hold on the target.

The structures appear in SMILES notation.

For the first experiment, the system named is Mus musculus. Nature of the experiment: Reduction of 8-OH-DPAT-induced hypothermia in Swiss albino mouse at 0.1 mg/kg, ip administered 45 mins prior 8-OH-DPAT challenge measured after 30 mins by inducible hypothermia test. Also noted: dose 0.1 mg/kg. In kind it is functional, organism-based.
As to `CC(C)NCC(O)COc1cccc2[nH]ccc12` (configuration not stated), the deltaT was -0.1 °C.

Another experiment relates to Mus musculus. The experiment in a line: Effect on hypothermia in Swiss albino mouse assessed as change in rectal body temperature at 5 mg/kg, ip after 60 mins by inducible hypothermia test. Also noted: dose 5 mg/kg. In kind it is functional, organism-based.
In the case of `O=c1c(-c2ccccc2F)c2n(c(=O)n1CCCCN1CCC(c3c[nH]c4ccccc34)CC1)CCCC2`, the deltaT is -0.8 °C.

The target of another experiment is T1, 5-hydroxytryptamine receptor 1A (Rattus norvegicus, UniProt P19327).
T1 sequence (P19327 whole entry): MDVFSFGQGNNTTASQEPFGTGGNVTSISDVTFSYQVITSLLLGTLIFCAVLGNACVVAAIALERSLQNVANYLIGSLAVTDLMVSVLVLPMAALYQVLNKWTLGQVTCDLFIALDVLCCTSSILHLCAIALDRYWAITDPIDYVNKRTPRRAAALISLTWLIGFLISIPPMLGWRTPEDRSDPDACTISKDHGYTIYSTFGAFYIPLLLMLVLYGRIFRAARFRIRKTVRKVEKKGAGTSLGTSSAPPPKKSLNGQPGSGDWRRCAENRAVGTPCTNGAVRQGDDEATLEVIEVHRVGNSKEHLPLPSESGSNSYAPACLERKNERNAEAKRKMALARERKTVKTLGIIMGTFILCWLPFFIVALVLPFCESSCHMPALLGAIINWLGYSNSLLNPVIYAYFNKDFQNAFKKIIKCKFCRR
Nature of the experiment: Displacement of [3H]8-OH-DPAT from 5-HT1A receptor in rat hippocampus. It is filed as tissue-based.
Turning to `O=c1c(-c2ccccc2F)c2n(c(=O)n1CCCCN1CCC(c3c[nH]c4ccccc34)CC1)CCCC2`, the Ki came to 41.3 nM.

The test system of a further experiment is Mus musculus. The experiment in a line: Reduction of 8-OH-DPAT-induced hypothermia in Swiss albino mouse at 0.1 mg/kg, ip administered 45 mins prior 8-OH-DPAT challenge measured after 60 mins by inducible hypothermia test. Further details: dose 0.1 mg/kg. In kind it is functional, organism-based.
For the compound `CC(C)NCC(O)COc1cccc2[nH]ccc12` (configuration not stated), the deltaT is -0.1 °C.

For another experiment, the target named is Sodium-dependent serotonin transporter (Rattus norvegicus, UniProt P31652). Nature of the experiment: Displacement of [3H]citalopram from SERT in rat cerebral cortex by liquid scintillation counting. It is filed as tissue-based. In general terms: In a radioligand displacement assay an active substance lowers the binding of a labelled ligand.
Sequence of Sodium-dependent serotonin transporter (P31652 whole entry): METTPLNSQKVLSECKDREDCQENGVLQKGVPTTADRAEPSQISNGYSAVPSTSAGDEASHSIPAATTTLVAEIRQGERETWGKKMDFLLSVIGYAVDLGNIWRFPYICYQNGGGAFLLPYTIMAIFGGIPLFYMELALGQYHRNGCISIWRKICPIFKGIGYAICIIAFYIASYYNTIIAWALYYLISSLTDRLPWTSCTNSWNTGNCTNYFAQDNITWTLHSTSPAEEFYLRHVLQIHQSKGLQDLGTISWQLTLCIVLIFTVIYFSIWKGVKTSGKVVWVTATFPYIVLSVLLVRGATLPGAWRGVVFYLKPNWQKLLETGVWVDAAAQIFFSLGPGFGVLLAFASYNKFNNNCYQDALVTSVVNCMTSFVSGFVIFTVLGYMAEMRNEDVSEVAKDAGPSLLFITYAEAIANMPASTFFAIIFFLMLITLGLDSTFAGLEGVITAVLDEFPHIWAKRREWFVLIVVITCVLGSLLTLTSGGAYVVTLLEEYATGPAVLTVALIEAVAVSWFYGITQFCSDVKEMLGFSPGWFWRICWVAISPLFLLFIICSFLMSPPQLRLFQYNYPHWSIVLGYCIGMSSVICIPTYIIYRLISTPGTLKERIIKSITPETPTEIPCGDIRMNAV
As for `O=c1c(-c2ccccc2F)c2n(c(=O)n1CCCCN1CCC(c3c[nH]c4ccccc34)CC1)CCCC2`, the Ki was determined as 68.4 nM.

The subject of a further experiment is Mus musculus. Nature of the experiment: Effect on hypothermia in Swiss albino mouse assessed as change in rectal body temperature at 0.1 mg/kg, ip after 90 mins by inducible hypothermia test. It is filed as functional, organism-based. Further details: dose 0.1 mg/kg.
In the case of `CC(C)NCC(O)COc1cccc2[nH]ccc12` (configuration not stated), the deltaT was -0.1 °C.

A further experiment has as its system Mus musculus. The experiment in a line: Effect on hypothermia in Swiss albino mouse assessed as change in rectal body temperature at 5 mg/kg, ip after 90 mins by inducible hypothermia test. It is filed as functional, organism-based. Further details: dose 5 mg/kg.
With `O=c1c(-c2ccccc2F)c2n(c(=O)n1CCCCN1CCC(c3c[nH]c4ccccc34)CC1)CCCC2`, the deltaT was -0.5 °C.

A further experiment deals with Mus musculus. The experiment in a line: Effect on hypothermia in Swiss albino mouse assessed as change in rectal body temperature at 5 mg/kg, ip after 30 mins by inducible hypothermia test. In kind it is functional, organism-based. Also noted: dose 5 mg/kg.
With `O=c1c(-c2ccccc2F)c2n(c(=O)n1CCCCN1CCC(c3c[nH]c4ccccc34)CC1)CCCC2`, the deltaT was -1.3 °C.

The test system of a further experiment is Mus musculus. Nature of the experiment: Effect on hypothermia in Swiss albino mouse assessed as change in rectal body temperature at 0.1 mg/kg, ip after 30 mins by inducible hypothermia test. It is filed as functional, organism-based. Further details: dose 0.1 mg/kg.
Take `CC(C)NCC(O)COc1cccc2[nH]ccc12` (configuration not stated): the deltaT was -0.2 °C.

For the next experiment, the system named is Mus musculus. Nature of the experiment: Effect on hypothermia in Swiss albino mouse assessed as change in rectal body temperature at 5 mg/kg, ip dosed 15 mins after 0.1 mg/kg, sc WAY 100635 challenge measured after 60 mins by inducible hypothermia test. In kind it is functional, organism-based.
As to `CC(C)NCC(O)COc1cccc2[nH]ccc12` (configuration not stated), the deltaT was -0.1 °C.
Turning to `O=c1c(-c2ccccc2F)c2n(c(=O)n1CCCCN1CCC(c3c[nH]c4ccccc34)CC1)CCCC2`, the deltaT was -0.1 °C.

The test system of another experiment is Mus musculus. Nature of the experiment: Effect on hypothermia in Swiss albino mouse assessed as change in rectal body temperature at 0.1 mg/kg, ip after 120 mins by inducible hypothermia test. It is filed as functional, organism-based. Further details: dose 0.1 mg/kg.
In the case of `CC(C)NCC(O)COc1cccc2[nH]ccc12` (configuration not stated), the deltaT was -0.1 °C.

The next experiment deals with Mus musculus. Nature of the experiment: Effect on hypothermia in Swiss albino mouse assessed as change in rectal body temperature at 5 mg/kg, ip after 120 mins by inducible hypothermia test. In kind it is functional, organism-based. Also noted: dose 5 mg/kg.
For the compound `O=c1c(-c2ccccc2F)c2n(c(=O)n1CCCCN1CCC(c3c[nH]c4ccccc34)CC1)CCCC2`, the deltaT was -0.3 °C.

For a further experiment, the system named is Mus musculus. Nature of the experiment: Effect on hypothermia in Swiss albino mouse assessed as change in rectal body temperature at 0.1 mg/kg, ip after 60 mins by inducible hypothermia test. Also noted: dose 0.1 mg/kg. In kind it is functional, organism-based.
Turning to `CC(C)NCC(O)COc1cccc2[nH]ccc12` (configuration not stated), the deltaT is -0.1 °C.

A further experiment deals with Mus musculus. Nature of the experiment: Effect on hypothermia in Swiss albino mouse assessed as change in rectal body temperature at 2.5 mg/kg, ip after 60 mins by inducible hypothermia test. It is filed as functional, organism-based. Also noted: dose 2.5 mg/kg.
For `O=c1c(-c2ccccc2F)c2n(c(=O)n1CCCCN1CCC(c3c[nH]c4ccccc34)CC1)CCCC2`, the deltaT is -0.2 °C.

For a further experiment, the system named is Mus musculus. The experiment in a line: Effect on hypothermia in Swiss albino mouse assessed as change in rectal body temperature at 2.5 mg/kg, ip after 120 mins by inducible hypothermia test. In kind it is functional, organism-based. Further details: dose 2.5 mg/kg.
As for `O=c1c(-c2ccccc2F)c2n(c(=O)n1CCCCN1CCC(c3c[nH]c4ccccc34)CC1)CCCC2`, the deltaT is -0.1 °C.

The subject of a further experiment is Mus musculus. Nature of the experiment: Effect on hypothermia in Swiss albino mouse assessed as change in rectal body temperature at 2.5 mg/kg, ip after 30 mins by inducible hypothermia test. Further details: dose 2.5 mg/kg. In kind it is functional, organism-based.
In the case of `O=c1c(-c2ccccc2F)c2n(c(=O)n1CCCCN1CCC(c3c[nH]c4ccccc34)CC1)CCCC2`, the deltaT was -0.5 °C.

For a further experiment, the system named is Mus musculus. Nature of the experiment: Effect on hypothermia in Swiss albino mouse assessed as change in rectal body temperature at 5 mg/kg, ip dosed 15 mins after 0.1 mg/kg, sc WAY 100635 challenge measured after 30 mins by inducible hypothermia test. It is filed as functional, organism-based.
For `CC(C)NCC(O)COc1cccc2[nH]ccc12` (configuration not stated), the deltaT was -0.2 °C.
In the case of `O=c1c(-c2ccccc2F)c2n(c(=O)n1CCCCN1CCC(c3c[nH]c4ccccc34)CC1)CCCC2`, the deltaT was -0.2 °C.

A further experiment concerns Mus musculus. The experiment in a line: Reduction of 8-OH-DPAT-induced hypothermia in Swiss albino mouse at 0.1 mg/kg, ip administered 45 mins prior 8-OH-DPAT challenge measured after 45 mins by inducible hypothermia test. It is filed as functional, organism-based. Also noted: dose 0.1 mg/kg.
Turning to `CC(C)NCC(O)COc1cccc2[nH]ccc12` (configuration not stated), the deltaT is -0.1 °C.

A further experiment concerns Mus musculus. The experiment in a line: Effect on hypothermia in Swiss albino mouse assessed as change in rectal body temperature at 2.5 mg/kg, ip after 90 mins by inducible hypothermia test. In kind it is functional, organism-based. Also noted: dose 2.5 mg/kg.
In the case of `O=c1c(-c2ccccc2F)c2n(c(=O)n1CCCCN1CCC(c3c[nH]c4ccccc34)CC1)CCCC2`, the deltaT is -0.1 °C.

The next experiment deals with Mus musculus. The experiment in a line: Reduction of 8-OH-DPAT-induced hypothermia in Swiss albino mouse at 0.1 mg/kg, ip administered 45 mins prior 8-OH-DPAT challenge measured after 15 mins by inducible hypothermia test. It is filed as functional, organism-based. Also noted: dose 0.1 mg/kg.
In turn, `CC(C)NCC(O)COc1cccc2[nH]ccc12` (configuration not stated) yielded a deltaT of -0.1 °C.
